Results from US9078874B2, “Composition and method for treating cognitive impairments in down syndrom subjects” (Centre National De La Recherche Scientifique—CNRS, priority 2009, dated 2015).

Key:
euploid mice = experiment: Dose-response in the delayed-matching-to-place task (DMTP); assay type: in vivo; conditions: 5 mg/kg, 30 min before testing; versus placebo; p<0.05
Experimental: FIG. 5 depicts results from a dose-response effect study of α5IA. The optimal α5IA promnesiant dose was determined in mice trained in the DMTP task. FIG. 5A: Schematic representation of the DMTP protocol. Each day, mice underwent 1 acquisition trial and 3 retention trials (inter-trial interval was 60 sec). The position of the platform was changed every day, but remained constant within each session.
To determine the optimal dose of α5IA, a dose-response study was performed in euploid mice trained in the delayed-matching-to-place task (DMTP), a classical learning and memory paradigm used to assess the promnesiant effects of drugs, and in particular of GABAA α5 inverse agonists [ref 8, 9, 11].
Experiments were performed in a Morris water maze (MWM). The maze was a 150-cm diameter pool filled with opacified water kept at 19° C. and equipped with a 9 cm diameter platform submerged 1 cm under the water surface. A total of 27 mice were used. Animals were randomly and equally distributed in 3 groups (placebo, α5IA 1 mg/kg, α5IA 5 mg/kg). Training was performed during 7 days. […] Memory assessment was determined by comparing the distance to reach the platform on the first trial (acquisition trial) and the mean distance traveled in subsequent trials (retention trials).

euploid and Ts65Dn mice [1] = experiment: Morris water maze (MWM) spatial reference memory; assay type: in vivo
Experimental: Spatial reference memory was evaluated using the standard Morris water maze task. The maze was similar to the one described above (dose-response effects of α5IA). The platform was submerged 1 cm below water surface in the center of one of the pool quadrants. During spatial allocentric training the non-visible platform remained at a constant position throughout the trials with numerous external visual indices available to facilitate formation of spatial cognitive maps.
A total of 32 mice (16 euploid and 16 Ts65Dn mice) were used. Animals were randomly and equally distributed into 4 groups. Each day mice were injected with placebo or α5IA (5 mg/kg) 30 min before the onset of behavioral testing.
On the first day, mice were submitted to a single habituation trial with the non-visible platform available. On the following six days, spatial allocentric training consisted in daily sessions (2 trials per session). Start positions varied pseudo-randomly among the four cardinal points. Mean inter-trial interval was 2 hours. During the habituation and spatial training phases each trial ended when the animal reached the platform. A 90 sec cut-off was used, after which mice were manually guided to the platform. Once on the platform, animals were given a 20 sec rest before being replaced in their cage. Twenty-four hours after the last training session, a probe trial was performed (Day 8) during which the platform was removed and mice allowed to freely navigate for 60 sec.
Following evaluation of spatial learning and memory skills, visual ability of mice was controlled using a non-spatial training procedure. Platform location was directly cued by a white styrene ball placed 12 cm above water surface and access to external indices was prevented by a black curtain surrounding the pool. Testing in this visually guided navigation task consisted of 4 daily sessions for 4 consecutive days as described above.
All data were collected, analyzed and stored using a video-tracking system (Ethovision, Noldus, Wageningen, The Netherlands).
During probe trial one supplementary (euploid) mouse was removed from analysis for the same reason.

euploid and Ts65Dn mice [2] = experiment: Convulsant effects after a single intraperitoneal injection; assay type: in vivo; conditions: 50 mg/kg i.p., observed 20 min
Experimental: The convulsant action of the α5IA or beta CCM was evaluated after a single intraperitoneal injection of 50 or 3 mg/Kg of α5IA or beta CCM, respectively. The 50 mg/Kg dose of α5IA corresponded to 10 times the dose with promnesiant effects and 10 times the active dose in the object recognition test (5 mg/Kg)
The proconvulsant action of the α5IA was measured after injection of a subconvulsive dose of pentylenetetrazole. Mice were injected with either vehicle or the α5IA (50 mg/kg i.p) and 20 min later they received an intraperitoneal injection of 45 mg/kg of pentylenetetrazole. […] Six to 7 mice were used for each condition. The latency to the first myoclonic jerk episode and the convulsion grade were recorded during a 1200-s period of observation. Four grades were empirically determined: Grade 0: no effect; grade 1: tail up and curved; grade 2: reversed tail and convulsive shivers; grade 3: myoclonic convulsions.
We then tested the proconvulsant effect of α5IA by injecting it (50 mg/kg) 20 min before a sub-convulsant dose of pentylenetetrazol (45 mg/kg) that induces myoclonic convulsions in about 50% of mice.

euploid and Ts65Dn mice [3] = experiment: Anxiety-related behavior in the elevated plus maze; assay type: in vivo; conditions: for Time spent in the open arms of the elevated plus-maze: acute, one single 15 mg/kg i.p. injection
Experimental: FIG. 6 depicts results from an anxiety-related behavior study of α5IA. Anxiety was assessed in the elevated plus maze, in both euploid and Ts65Dn mice under placebo or α5IA. Time spent in the open arms of the elevated plus-maze was taken as a measure of anxiety levels.
Modulation of anxiety-related behaviors by α5IA was more precisely assessed using an elevated-plus maze, in a total of 42 mice, 30 min after i.p. injections (placebo: 11 euploid and 7 Ts65Dn mice; α5IA (15 mg/kg): 14 euploid and 10 Ts65Dn mice). The maze was constructed of black perspex (length, 28 cm; width, 5 cm; height from floor, 40 cm; overall luminosity in open arms: 70 1×) with two opposing open arms, and two enclosed arms equipped with three 16 cm high walls. Mice were placed in the central region of the maze and behavior was recorded for a 5 min period using the Any. Maze software that automatically calculates the time spent in the different parts of the maze (e.g., open and enclosed arms).
To explore the potential adversity of chronic injections of α5IA (5 mg/kg), another group of euploid mice was treated for two weeks (5 injections/week; 5 α5IA treated mice; 5 placebo-treated mice). After repeated treatment, these mice were evaluated in the elevated plus maze as described above.

rats = conditions: cited from earlier work
[4] = Ts65Dn mice, 5 mg/kg i.p. 30 min before each session

## Cc1cc(-c2nnc3c4ccccc4c(OCc4cn(C)nn4)nn23)no1 [α5IA, 3-(5-methylisoxazol-3-yl)-6-[(1-methyl-1,2,3-triazol-4-yl)methyloxy]-1,2,4-triazolo[3,4-a]phthalazine]
Euploid mice
  Performance (distance to platform) between acquisition and retention trials: significantly higher performance
Euploid and Ts65Dn mice [1]; [4]
  hits (reaching the platform before 90 sec): reversed after treatment
  learning index: corrected by treatment
Euploid and Ts65Dn mice [1]; control euploid mice, 5 mg/kg
  learning performance in the MWM: did not observe a significant promnesiant effect
Euploid and Ts65Dn mice [1]; euploid mice (p=0.06), 5 mg/kg
  thigmotaxy, significance of the effect: just failed to reach statistical significance
Euploid and Ts65Dn mice [1]; euploid or Ts65Dn mice, 5 mg/kg
  retention performance during the probe test (24 hours): did not significantly increase retention performance
Euploid and Ts65Dn mice [1]; p>0.16, 5 mg/kg
  performance in the cued (visible platform) version of the MWM: did not find any effect
Euploid and Ts65Dn mice [1]; particularly in Ts65Dn mice (p<0.001), 5 mg/kg
  thigmotaxy (wall-seeking behavior): strongly decreased
Euploid and Ts65Dn mice [2]; Euploids
  Convulsant mice rate: 0/6
Euploid and Ts65Dn mice [2]; Ts65Dn
  Convulsant mice rate: 0/7
Euploid and Ts65Dn mice [3]; Ts65Dn mice, p<0.05
  Time spent in the open arms of the elevated plus-maze: significantly reduced the time spent in open arms
Euploid and Ts65Dn mice [3]; euploid mice
  Time spent in the open arms of the elevated plus-maze: did not modify the behavior
Euploid and Ts65Dn mice [3]; semi-chronic, 5 mg/kg 5 times a week for 2 weeks, euploid mice, p>0.73
  anxiety levels in the elevated plus maze: did not alter the anxiety levels
rats; rat, in vivo
  cognitive performance in variant of the Morris water maze task: enhance cognitive performance
rats; rats
  effective promnesiant dose in the MWM test: 3 mg/kg
